Source: US8575114B2, “SGLT-2 inhibitors, methods of making them, and uses thereof” (Albany Molecular Research, Inc., priority 2010, dated 2013)

Legend:
[1] = biological target: hSGLT-1 (Homo sapiens (Human), UniProt P13866); assay: [14C]AMG uptake inhibition in CHO-K1/hSGLT-1 cells; type: cell-based; details: 4 μM [14C]AMG, 3-hr incubation at 37° C., read-out: SGLT-1, IC50
Description: (§1) The inhibitory activity of the compounds of this invention against the SGLT-1 or SGLT-2 transporters can be determined by the following assay. The cDNAs for the human genes of SGLT-1 (SLC5A1—solute carrier family 5 sodium/glucose cotransporter member 1; Accession #NM_000343.1) or SGLT-2 (SLC5A2—member 2; Accession #NM_003041.2) were synthesized (OriGene Technologies, Inc.) and sub-cloned into the mammalian expression vector, pcDNA3.1 (Invitrogen Corp., Carlsbad, Calif.) using standard molecular biology techniques. CHO-K1 cells transfected with pcDNA3.1 (Invitrogen Corp., Carlsbad, Calif.) containing either the full-length hSGLT-1 or hSGLT-2 using Lipofectamine 2000 (Invitrogen Corp., Carlsbad, Calif.) were selected for stable incorporation of the construct by resistance to the selective pressure of Geneticin (450 μg/ml; Invitrogen Corp., Carlsbad, Calif.). Monoclonal cell lines isolated by minimal dilution were screened for uptake activity of radiolabled methyl α-D-glucopyranoside ([^14C]AMG), a non-metabolizable glucose analogue, and a single clone for each transporter was selected for maximal transporter activity to be used for evaluating the inhibitory activity of the compounds of this invention. In brief, 35,000 cells (CHO-K1/hSGLT-1 or CHO-K1/hSGLT-2) were plated per well of a black tissue culture treated 96-well plate in Ham's F12 media supplemented with 10% heat inactivated FBS and allowed to attached overnight at 37° C. and 5% CO2. Compounds were serially diluted 3-fold in DMSO generating a nine (9) data point dose response curve for each compound. Two replicates were performed per determination. The compounds were then diluted into Uptake Buffer (10 mM Hepes, 5 mM Tris, 137 mM NaCl, 5.4 mM KCl, 2.8 mM CaCl2, and 1.2 mM MgSO4, pH 7.4) with a final DMSO concentration of 0.9% (v/v). After the overnight incubation and prior to compound treatment, the cells were washed twice with Sodium Free Buffer in which the sodium chloride was replaced with 137 mM Choline Chloride, and then incubated with 4 μM [^14C]AMG in Uptake Buffer in the presence or absence of diluted compound. Following a 3-hr incubation at 37° C. and 5% CO2, the uptake reaction was stopped by washing the cells three (3) times with ice-cold D-PBS and then lysing the cells with 50 μl of Microscint-20. After 15-min, the amount of radioactivity that was incorporated into the cells was quantified using a Microbeta reader. Data were fit to an empirical four-parameter model to determine the inhibitor concentration at half-maximal response (IC50). The assay window was established by control wells incubated with [^14C]AMG in the presence or absence of sodium. A dose response curve for phlorizin was generated on every plate as a positive control.

[2] = biological target: hSGLT-2 (Homo sapiens (Human), UniProt P31639); assay: [14C]AMG uptake inhibition in CHO-K1/hSGLT-2 cells; type: cell-based; details: 4 μM [14C]AMG, 3-hr incubation at 37° C., read-out: SGLT2, IC50
Sequence of hSGLT-2 (P31639 whole entry): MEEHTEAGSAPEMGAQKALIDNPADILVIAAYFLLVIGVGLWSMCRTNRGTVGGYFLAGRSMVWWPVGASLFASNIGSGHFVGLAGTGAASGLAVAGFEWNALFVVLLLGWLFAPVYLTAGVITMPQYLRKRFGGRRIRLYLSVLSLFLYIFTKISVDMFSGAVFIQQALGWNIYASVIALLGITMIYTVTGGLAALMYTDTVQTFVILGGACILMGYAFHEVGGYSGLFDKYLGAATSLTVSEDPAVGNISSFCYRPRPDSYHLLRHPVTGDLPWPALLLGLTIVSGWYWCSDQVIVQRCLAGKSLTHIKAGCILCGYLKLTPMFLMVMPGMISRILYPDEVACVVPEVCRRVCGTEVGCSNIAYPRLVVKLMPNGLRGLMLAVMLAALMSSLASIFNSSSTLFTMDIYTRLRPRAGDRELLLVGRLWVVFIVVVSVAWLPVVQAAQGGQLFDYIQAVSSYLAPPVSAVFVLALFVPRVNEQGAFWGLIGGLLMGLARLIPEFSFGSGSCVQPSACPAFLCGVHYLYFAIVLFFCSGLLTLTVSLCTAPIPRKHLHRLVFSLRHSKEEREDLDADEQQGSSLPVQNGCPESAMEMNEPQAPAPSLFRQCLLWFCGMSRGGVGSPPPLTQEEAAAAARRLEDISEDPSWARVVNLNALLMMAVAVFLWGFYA
Description: as §1, with “The cDNAs for the human genes of SGLT-1 (SLC5A1—solute carrier family 5 sodium/glucose cotransporter member 1; Accession #NM_000343.1) or SGLT-2 (SLC5A2—member 2; Accession #NM_003041.2) were synthesized (OriGene Technologies, Inc.) and sub-cloned into the mammalian expression vector, pcDNA3.1 (Invitrogen Corp., Carlsbad, Calif.) using standard molecular biology techniques.” left out, “The compounds were then diluted into Uptake Buffer (10 mM Hepes, 5 mM Tris, 137 mM NaCl, 5.4 mM KCl, 2.8 mM CaCl2, and 1.2 mM MgSO4, pH 7.4) with a final DMSO concentration of 0.9% (v/v). After the overnight incubation and prior to compound treatment, the cells were washed twice with Sodium Free Buffer in which the sodium chloride was replaced with 137 mM Choline Chloride, and then incubated with 4 μM [^14C]AMG in Uptake Buffer in the presence or absence of diluted compound.” left out, “After 15-min, the amount of radioactivity that was incorporated into the cells was quantified using a Microbeta reader.” left out

Sequence of hSGLT-1 (P13866 whole entry): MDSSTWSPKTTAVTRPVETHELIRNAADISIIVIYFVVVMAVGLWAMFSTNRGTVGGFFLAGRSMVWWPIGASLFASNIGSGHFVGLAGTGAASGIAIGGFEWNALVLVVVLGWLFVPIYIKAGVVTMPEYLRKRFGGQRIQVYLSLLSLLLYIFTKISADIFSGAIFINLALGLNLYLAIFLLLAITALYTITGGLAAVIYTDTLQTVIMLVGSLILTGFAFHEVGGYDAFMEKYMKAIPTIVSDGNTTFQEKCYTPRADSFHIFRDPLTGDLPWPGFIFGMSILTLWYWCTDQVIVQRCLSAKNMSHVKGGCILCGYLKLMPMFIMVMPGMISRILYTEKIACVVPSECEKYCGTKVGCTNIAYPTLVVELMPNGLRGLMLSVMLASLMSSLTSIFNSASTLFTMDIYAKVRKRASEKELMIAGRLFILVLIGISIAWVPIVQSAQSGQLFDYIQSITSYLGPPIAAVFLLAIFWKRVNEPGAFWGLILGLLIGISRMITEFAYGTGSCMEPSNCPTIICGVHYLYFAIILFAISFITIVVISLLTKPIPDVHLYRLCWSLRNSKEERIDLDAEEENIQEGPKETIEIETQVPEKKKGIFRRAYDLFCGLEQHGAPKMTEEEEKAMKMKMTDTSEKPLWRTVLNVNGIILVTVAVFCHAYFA

Row | IC50 [1] | IC50 [2] | SMILES
1 | 49.5 µM | 273 nM | O=c1n(Cc2cc([C@@H]3O[C@H](CO)[C@@H](O)[C@H](O)[C@H]3O)ccc2Cl)nc2cc(C(F)(F)F)ccn12 [I-3, 2-(2-chloro-5-((2S,3R,4R,5S,6R)-3,4,5-trihydroxy-6-(hydroxymethyl)tetrahydro-2H-pyran-2-yl)benzyl)-7-(trifluoromethyl)-[1,2,4]triazolo[4,3-a]pyridin-3(2H)-one]
2 | > 90 µM | 463 nM | O=c1n(Cc2cc([C@@H]3O[C@H](CO)[C@@H](O)[C@H](O)[C@H]3O)ccc2Cl)nc2ccc(CCO)cn12 [I-15, 2-(2-chloro-5-((2S,3R,4R,5S,6R)-3,4,5-trihydroxy-6-(hydroxymethyl)tetrahydro-2H-pyran-2-yl)benzyl)-6-(2-hydroxyethyl)-[1,2,4]triazolo[4,3-a]pyridin-3(2H)-one]
3 | > 73.2 µM | 316 nM | OC[C@H]1O[C@@H](c2ccc(Cl)c(Cn3nc4ccccn4c3=S)c2)[C@H](O)[C@@H](O)[C@@H]1O [I-7, 2-(2-chloro-5-((2S,3R,4R,5S,6R)-3,4,5-trihydroxy-6-(hydroxymethyl)tetrahydro-2H-pyran-2-yl)benzyl)-[1,2,4]triazolo[4,3-a]pyridine-3(2H)-thione]
